# Results from ChEMBL document CHEMBL3352178, “Antidepressant- and anxiolytic-like activity of 7-phenylpiperazinylalkyl-1,3-dimethyl-purine-2,6-dione derivatives with diversified 5-HT₁A receptor functional profile” (Bioorg Med Chem, 2015).
# The source made the active and inactive calls. No cut-off for these calls is given here.
# Key:
# Mus musculus [1] = assay: Inhibition of (+/-)-DOI-induced head twitch response in mouse dosed intraperitoneally 60 mins before (+/-)-DOI injection; assay type: functional
# Mus musculus [2] = assay: Anxiolytic-like activity in mouse assessed as increase in number of punished crossings at 20 mg/kg, ip dosed 60 mins before test by four plate test; assay type: functional; conditions: route intraperitoneal
# Mus musculus [3] = assay: Effect on spontaneous locomotor activity in mouse at 20 mg/kg, ip; assay type: ADME, organism-based; design: dose 20 mg/kg, route intraperitoneal; conditions: in vivo
# Mus musculus [4] = assay: Anxiolytic-like activity in mouse assessed as increase in number of punished crossings at 20 mg/kg, ip dosed 60 mins before test in presence of 0.3 mg/kg, sc 5HT1A receptor antagonist WAY 100635 by four plate test; assay type: functional, organism-based
# Mus musculus [5] = assay: Antidepressant-like activity in mouse assessed as reduction in immobility time at 5 mg/kg, ip dosed 60 mins before test by forced swim test; assay type: functional; design: scale not given: the % may be the effect or the level left; conditions: route intraperitoneal
# Mus musculus [6] = assay: Antidepressant-like activity in mouse assessed as reduction in immobility time at 10 mg/kg, ip dosed 60 mins before test by forced swim test; assay type: functional; design: scale not given: the % may be the effect or the level left; conditions: route intraperitoneal
# Mus musculus [7] = assay: Effect on spontaneous locomotor activity in ip dosed mouse during 2 to 6 mins; assay type: ADME, organism-based; conditions: in vivo
# Mus musculus [8] = assay: Antidepressant-like activity in mouse assessed as reduction in immobility time at 5 mg/kg, ip dosed 60 mins before test in presence of 0.3 mg/kg, sc 5HT1A receptor antagonist WAY 100635 by forced swim test; assay type: functional, organism-based
# [9] = target: T1, 5-hydroxytryptamine receptor 1A (Rattus norvegicus, UniProt P19327); assay: Displacement of [3H]-8-OH-DPAT from 5-HT1AR in rat hippocampus; assay type: tissue-based
# T1 sequence (P19327 whole entry): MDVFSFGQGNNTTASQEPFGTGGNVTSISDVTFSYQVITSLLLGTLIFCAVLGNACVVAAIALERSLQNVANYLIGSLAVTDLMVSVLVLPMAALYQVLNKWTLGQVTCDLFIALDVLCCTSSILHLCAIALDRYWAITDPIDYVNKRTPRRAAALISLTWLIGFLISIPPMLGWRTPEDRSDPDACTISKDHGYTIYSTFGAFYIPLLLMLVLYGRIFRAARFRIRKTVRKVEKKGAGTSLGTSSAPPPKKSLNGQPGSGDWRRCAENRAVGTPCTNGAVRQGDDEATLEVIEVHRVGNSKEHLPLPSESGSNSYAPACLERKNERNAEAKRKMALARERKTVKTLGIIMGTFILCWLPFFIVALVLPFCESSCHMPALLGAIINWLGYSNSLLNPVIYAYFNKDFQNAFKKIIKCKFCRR
# [10] = target: 5-hydroxytryptamine receptor 2A (Rattus norvegicus, UniProt P14842); assay: Displacement of [3H]-ketanserin from 5-HT2AR in rat cortex
# [11] = target: 5-hydroxytryptamine receptor 6 (Homo sapiens, UniProt P50406); assay: Displacement of [3H]LSD from human cloned 5-HT6R expressed in HEK293 cells; assay type: cell-based
# [12] = target: 5-hydroxytryptamine receptor 7 (Homo sapiens, UniProt P34969); assay: Displacement of [3H]]-5-CT from human cloned 5-HT7R expressed in HEK293 cells; assay type: cell-based
# D(2) dopamine receptor = D(2) dopamine receptor (Rattus norvegicus, UniProt P61169); assay: Displacement of [3H]-spiperone from dopamine D2 receptor in rat striatum
# Mus musculus [13] = assay: Induction of hypothermia in mouse assessed as change in body temperature at 2.5 mg/kg, ip administered 30 mins before test and measured 30 mins post dose; assay type: functional, organism-based; design: dose 2.5 mg/kg
# Mus musculus [14] = assay: Induction of hypothermia in mouse assessed as change in body temperature at 5 mg/kg, ip administered 30 mins before test and measured 30 mins post dose; assay type: functional, organism-based; design: dose 5 mg/kg
# Mus musculus [15] = assay: Induction of hypothermia in mouse assessed as change in body temperature at 10 mg/kg, ip administered 30 mins before test and measured 30 mins post dose; assay type: functional, organism-based; design: dose 10 mg/kg
# Mus musculus [16] = assay: Induction of hypothermia in mouse assessed as change in body temperature at 2.5 mg/kg, ip administered 30 mins before test and measured 60 mins post dose; assay type: functional, organism-based; design: dose 2.5 mg/kg
# Mus musculus [17] = assay: Induction of hypothermia in mouse assessed as change in body temperature at 5 mg/kg, ip administered 30 mins before test and measured 60 mins post dose; assay type: functional, organism-based; design: dose 5 mg/kg
# Mus musculus [18] = assay: Induction of hypothermia in mouse assessed as change in body temperature at 10 mg/kg, ip administered 30 mins before test and measured 60 mins post dose; assay type: functional, organism-based; design: dose 10 mg/kg
# Mus musculus [19] = assay: Induction of hypothermia in mouse assessed as change in body temperature at 2.5 mg/kg, ip administered 30 mins before test and measured 90 mins post dose; assay type: functional, organism-based; design: dose 2.5 mg/kg
# Mus musculus [20] = assay: Induction of hypothermia in mouse assessed as change in body temperature at 5 mg/kg, ip administered 30 mins before test and measured 90 mins post dose; assay type: functional, organism-based; design: dose 5 mg/kg
# Mus musculus [21] = assay: Induction of hypothermia in mouse assessed as change in body temperature at 10 mg/kg, ip administered 30 mins before test and measured 90 mins post dose; assay type: functional, organism-based; design: dose 10 mg/kg
# Mus musculus [22] = assay: Induction of hypothermia in mouse assessed as change in body temperature at 2.5 mg/kg, ip administered 30 mins before test and measured 120 mins post dose; assay type: functional, organism-based; design: dose 2.5 mg/kg
# Mus musculus [23] = assay: Induction of hypothermia in mouse assessed as change in body temperature at 5 mg/kg, ip administered 30 mins before test and measured 120 mins post dose; assay type: functional, organism-based; design: dose 5 mg/kg
# Mus musculus [24] = assay: Induction of hypothermia in mouse assessed as change in body temperature at 10 mg/kg, ip administered 30 mins before test and measured 120 mins post dose; assay type: functional, organism-based; design: dose 10 mg/kg
# Mus musculus [25] = assay: Induction of hypothermia in mouse assessed as change in body temperature at 5 mg/kg, ip administered 30 mins before test and measured 30 mins post dose in presence of 0.3 mg/kg, sc 5HT1A receptor antagonist WAY 100635; assay type: functional, organism-based
# Mus musculus [26] = assay: Induction of hypothermia in mouse assessed as change in body temperature at 5 mg/kg, ip administered 30 mins before test and measured 60 mins post dose in presence of 0.3 mg/kg, sc 5HT1A receptor antagonist WAY 100635; assay type: functional, organism-based
# Mus musculus [27] = assay: Induction of hypothermia in mouse assessed as change in body temperature at 2.5 mg/kg, ip administered 30 mins before test and measured 30 mins post dose in presence of 0.3 mg/kg, sc 5HT1A receptor antagonist WAY 100635; assay type: functional, organism-based
# Mus musculus [28] = assay: Induction of hypothermia in mouse assessed as change in body temperature at 2.5 mg/kg, ip administered 30 mins before test and measured 60 mins post dose in presence of 0.3 mg/kg, sc 5HT1A receptor antagonist WAY 100635; assay type: functional, organism-based
# Rattus norvegicus [29] = assay: Induction of lower lip retraction in rat assessed as lower lip retraction scores at 0.5 mg/kg, ip dosed 15 mins before test; assay type: functional; conditions: route intraperitoneal
# Rattus norvegicus [30] = assay: Induction of lower lip retraction in rat assessed as lower lip retraction scores at 1 mg/kg, ip dosed 15 mins before test; assay type: functional; conditions: route intraperitoneal
# Rattus norvegicus [31] = assay: Induction of lower lip retraction in rat assessed as lower lip retraction scores at 1 mg/kg, ip dosed 45 mins after 0.3 mg/kg, sc 5HT1A receptor antagonist WAY 100635; assay type: functional
# Mus musculus [32] = assay: Inhibition of (+/-)-DOI-induced head twitch response in mouse assessed as head twitches per 20 mins at 2.5 mg/kg, ip dosed 60 mins before (+/-)-DOI injection (reference value: 21.6 +/- 3.4/20 mins); assay type: functional; conditions: route intraperitoneal
# Mus musculus [33] = assay: Inhibition of (+/-)-DOI-induced head twitch response in mouse assessed as head twitches per 20 mins at 5 mg/kg, ip dosed 60 mins before (+/-)-DOI injection (reference value: 21.6 +/- 3.4/20 mins); assay type: functional; conditions: route intraperitoneal
# Mus musculus [34] = assay: Inhibition of (+/-)-DOI-induced head twitch response in mouse assessed as head twitches per 20 mins at 10 mg/kg, ip dosed 60 mins before (+/-)-DOI injection (reference value: 21.6 +/- 3.4/20 mins); assay type: functional; conditions: route intraperitoneal
# Mus musculus [35] = assay: Inhibition of (+/-)-DOI-induced head twitch response in mouse assessed as head twitches per 20 mins at 20 mg/kg, ip dosed 60 mins before (+/-)-DOI injection (reference value: 21.6 +/- 3.4/20 mins); assay type: functional; conditions: route intraperitoneal
# Mus musculus [36] = assay: Antidepressant-like activity in mouse assessed as reduction in immobility time at 0.625 mg/kg, ip dosed 60 mins before test by forced swim test; assay type: functional; design: scale not given: the % may be the effect or the level left; conditions: route intraperitoneal
# Mus musculus [37] = assay: Antidepressant-like activity in mouse assessed as reduction in immobility time at 1.25 mg/kg, ip dosed 60 mins before test by forced swim test; assay type: functional; design: scale not given: the % may be the effect or the level left; conditions: route intraperitoneal
# Mus musculus [38] = assay: Antidepressant-like activity in mouse assessed as reduction in immobility time at 0.625 mg/kg, ip dosed 60 mins before test in presence of 0.3 mg/kg, sc 5HT1A receptor antagonist WAY 100635 by forced swim test; assay type: functional, organism-based
# Mus musculus [39] = assay: Induction of hypothermia in mouse assessed as change in body temperature at 10 mg/kg, ip administered 30 mins before test and measured 30 mins post dose in presence of 0.3 mg/kg, sc 5HT1A receptor antagonist WAY 100635; assay type: functional, organism-based
# Mus musculus [40] = assay: Induction of hypothermia in mouse assessed as change in body temperature at 10 mg/kg, ip administered 30 mins before test and measured 60 mins post dose in presence of 0.3 mg/kg, sc 5HT1A receptor antagonist WAY 100635; assay type: functional, organism-based
# Rattus norvegicus [41] = assay: Induction of lower lip retraction in rat assessed as lower lip retraction scores at 5 mg/kg, ip dosed 15 mins before test; assay type: functional; conditions: route intraperitoneal
# Rattus norvegicus [42] = assay: Induction of lower lip retraction in rat assessed as lower lip retraction scores at 10 mg/kg, ip dosed 15 mins before test; assay type: functional; conditions: route intraperitoneal
# Rattus norvegicus [43] = assay: Inhibition of 8-OH-DPAT-induced lower lip retraction in rat assessed as lower lip retraction scores at 5 mg/kg, ip dosed 45 mins before 8-OH-DPAT; assay type: functional; conditions: route intraperitoneal
# Rattus norvegicus [44] = assay: Induction of lower lip retraction in rat assessed as lower lip retraction scores at 10 mg/kg, ip dosed 45 mins after 0.3 mg/kg, sc 5HT1A receptor antagonist WAY 100635; assay type: functional
# Chain of D(2) dopamine receptor (P61169 whole entry): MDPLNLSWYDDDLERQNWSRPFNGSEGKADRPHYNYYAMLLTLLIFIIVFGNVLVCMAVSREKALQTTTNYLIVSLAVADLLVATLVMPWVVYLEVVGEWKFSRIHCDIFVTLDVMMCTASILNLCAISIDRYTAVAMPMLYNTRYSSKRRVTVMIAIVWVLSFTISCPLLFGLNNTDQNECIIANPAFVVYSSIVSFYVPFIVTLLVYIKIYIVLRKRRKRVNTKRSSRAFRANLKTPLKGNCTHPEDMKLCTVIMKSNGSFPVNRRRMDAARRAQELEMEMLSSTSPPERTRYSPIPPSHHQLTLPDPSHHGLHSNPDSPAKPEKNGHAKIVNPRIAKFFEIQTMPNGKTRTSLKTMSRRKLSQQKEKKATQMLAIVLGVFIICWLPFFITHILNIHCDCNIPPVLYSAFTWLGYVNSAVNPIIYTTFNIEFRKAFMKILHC
# Chain of 5-hydroxytryptamine receptor 7 (P34969 whole entry): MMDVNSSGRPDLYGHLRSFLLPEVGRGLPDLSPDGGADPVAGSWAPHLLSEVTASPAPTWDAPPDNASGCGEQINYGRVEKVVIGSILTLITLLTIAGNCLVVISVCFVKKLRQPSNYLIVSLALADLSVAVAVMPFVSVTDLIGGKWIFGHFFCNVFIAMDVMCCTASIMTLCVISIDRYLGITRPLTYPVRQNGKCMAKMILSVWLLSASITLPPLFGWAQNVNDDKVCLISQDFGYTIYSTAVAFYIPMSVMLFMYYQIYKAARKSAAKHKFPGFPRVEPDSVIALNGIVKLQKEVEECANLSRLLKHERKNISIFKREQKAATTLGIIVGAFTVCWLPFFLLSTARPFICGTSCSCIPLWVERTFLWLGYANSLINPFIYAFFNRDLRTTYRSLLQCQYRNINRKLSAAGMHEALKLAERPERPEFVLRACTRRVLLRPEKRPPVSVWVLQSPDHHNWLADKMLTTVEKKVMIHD
# Chain of 5-hydroxytryptamine receptor 2A (P14842 whole entry): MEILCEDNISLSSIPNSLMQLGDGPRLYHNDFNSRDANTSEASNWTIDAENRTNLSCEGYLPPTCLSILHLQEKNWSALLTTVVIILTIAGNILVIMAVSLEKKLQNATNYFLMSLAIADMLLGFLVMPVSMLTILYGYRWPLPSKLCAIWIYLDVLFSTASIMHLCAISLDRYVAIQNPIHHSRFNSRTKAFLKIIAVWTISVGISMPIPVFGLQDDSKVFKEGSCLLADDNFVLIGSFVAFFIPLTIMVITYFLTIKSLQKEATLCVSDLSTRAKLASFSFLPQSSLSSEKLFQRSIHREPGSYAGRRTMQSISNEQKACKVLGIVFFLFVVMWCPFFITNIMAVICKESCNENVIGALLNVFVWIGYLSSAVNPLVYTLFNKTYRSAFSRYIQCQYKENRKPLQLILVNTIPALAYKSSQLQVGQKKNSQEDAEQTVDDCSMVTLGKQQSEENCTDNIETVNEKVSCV
# Chain of 5-hydroxytryptamine receptor 6 (P50406 whole entry): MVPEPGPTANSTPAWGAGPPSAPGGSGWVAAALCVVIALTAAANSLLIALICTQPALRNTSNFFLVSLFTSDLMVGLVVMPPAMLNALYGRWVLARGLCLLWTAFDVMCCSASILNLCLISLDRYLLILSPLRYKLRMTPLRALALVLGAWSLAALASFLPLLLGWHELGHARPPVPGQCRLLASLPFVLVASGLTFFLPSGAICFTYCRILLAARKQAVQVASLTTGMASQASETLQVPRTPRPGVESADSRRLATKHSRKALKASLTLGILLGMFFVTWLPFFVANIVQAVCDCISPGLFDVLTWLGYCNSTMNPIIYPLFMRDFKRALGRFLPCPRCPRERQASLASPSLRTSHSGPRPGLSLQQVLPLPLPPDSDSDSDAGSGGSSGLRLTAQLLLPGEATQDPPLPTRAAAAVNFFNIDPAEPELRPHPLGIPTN
compound,measurement,setting,value
Cl.Cn1c(=O)c2c(ncn2CCCCN2CCN(c3cccc(Cl)c3)CC2)n(C)c1=O,inhibition,Mus musculus [1],Dose-dependent effect
same,ED50,"Mus musculus [1]; ip, read-out: ID50 (the source's name)",5.09 mg/kg
same,Activity,Mus musculus [2],57%
same,Activity,Mus musculus [3],Non-toxic
same,Activity,Mus musculus [4],inactive
same,Activity,Mus musculus [5],37%
same,Activity,Mus musculus [6],30%
same,Activity,Mus musculus [7],Non-toxic
same,Activity,Mus musculus [8],inactive
same,Ki,[9],1 nM
same,Ki,[10],102 nM
same,Ki,[11],5150 nM
same,Ki,[12],479 nM
same,Ki,D(2) dopamine receptor,195 nM
same,deltaT,Mus musculus [13],-1.8 °C
same,deltaT,Mus musculus [14],-2.1 °C
same,deltaT,Mus musculus [15],-2 °C
same,deltaT,Mus musculus [16],-0.8 °C
same,deltaT,Mus musculus [17],-1.1 °C
same,deltaT,Mus musculus [18],-1.7 °C
same,deltaT,Mus musculus [19],-0.1 °C
same,deltaT,Mus musculus [20],-0.6 °C
same,deltaT,Mus musculus [21],-1.3 °C
same,deltaT,Mus musculus [22],0 °C
same,deltaT,Mus musculus [23],-0.2 °C
same,deltaT,Mus musculus [24],0.8 °C
same,deltaT,Mus musculus [25],-1.5 °C
same,deltaT,Mus musculus [26],-0.6 °C
same,deltaT,Mus musculus [27],-0.8 °C
same,deltaT,Mus musculus [28],-0.2 °C
same,Activity,Rattus norvegicus [29],0.3
same,Activity,Rattus norvegicus [30],1.5
same,Activity,Rattus norvegicus [31],0.1
same,Activity,Mus musculus [32],11
same,Activity,Mus musculus [33],7.7
same,Activity,Mus musculus [34],3.8
same,Activity,Mus musculus [35],3.2
COc1ccccc1N1CCN(CCCCCn2cnc3c2c(=O)n(C)c(=O)n3C)CC1.Cl,Activity,Mus musculus [36],30%
same,Activity,Mus musculus [37],35%
same,Activity,Mus musculus [7],Non-toxic
same,Activity,Mus musculus [38],inactive
same,Ki,[9],1 nM
same,Ki,[10],598 nM
same,Ki,[11],8990 nM
same,Ki,[12],294 nM
same,Ki,D(2) dopamine receptor,33 nM
same,deltaT,Mus musculus [14],-1 °C
same,deltaT,Mus musculus [15],-2.1 °C
same,deltaT,Mus musculus [17],-0.2 °C
same,deltaT,Mus musculus [18],-1 °C
same,deltaT,Mus musculus [20],0.3 °C
same,deltaT,Mus musculus [21],-0.9 °C
same,deltaT,Mus musculus [23],0.3 °C
same,deltaT,Mus musculus [24],-0.4 °C
same,deltaT,Mus musculus [39],-1.8 °C
same,deltaT,Mus musculus [40],-1.6 °C
same,Activity,Rattus norvegicus [41],0.6
same,Activity,Rattus norvegicus [42],0.8
same,Activity,Rattus norvegicus [43],2.1
same,Activity,Rattus norvegicus [44],0.1
